Six molecules from ChEMBL document CHEMBL1201862, “PubChem BioAssay data set” (2004) can be followed below.

For experiment [1], the target named is Heat shock protein HSP 90-alpha (Homo sapiens, UniProt P07900). The format is functional, organism-based.
Experiment [2] has as its target Disintegrin and metalloproteinase domain-containing protein 17 (Homo sapiens, UniProt P78536). The experiment can be described thus: exosite inhibitors of ADAM17, dose response, biochemical (AID 743260).
Experiment [3] in a line: inhibition of ADAM10 peptide cleavage – biochemical, FRET peptide substrate, recombinant human ADAM10, selectivity assay for ADAM17 exosite inhibitor project, dose response (AID 743259).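 Also: ADAM10 enzyme cleaving a FRET peptide substrate.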
Experiment [4] addresses Kappa-type opioid receptor (Homo sapiens, UniProt P41145). The experiment can be described thus: kappa opioid receptor antagonism potency – cell-based, fluorescence, dose response, late-stage follow-up (AID 652032). The format is functional.
A short description of experiment [5]: toxicity to human hepatoma HepG2 cells – cell-based, cherry-picked samples, cytotoxicity control, dose response (AID 1159577). The format is functional.
Experiment [6] can be described thus: activation of miR-122 Renilla sensor silencing – cell-based, Huh7 psiCHECK-miR122, Renilla luciferase, cherry-picked, dose response (AID 651956).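 Also: huh7 hepatoma cells stably carrying a psiCHECK-2 miR-122 sensor plasmid; renilla luciferase signal reporting endogenous miR-122 activity after 48 h compound exposure.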 The format is functional.
Experiment [7] in a line: reduced cellular PGC1a acetyl-lysine signal – cell-based, cherry-picked samples, dose response (AID 720514).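 Also: potency may reflect raised or lowered acetylation signal.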 Type of experiment: functional.
Experiment [8] is described as follows: P. falciparum Dd2 growth inhibitors, dose response, SYBR Green, cherry-picked samples (AID 1159567). Type of experiment: functional, cell-based.
The nature of experiment [9]: general mammalian cell viability loss – activator set, cherry-pick, cytotoxicity control for miR-122 modulator project, dose response (AID 720690).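 Also: HEK293T human cells scored for general mammalian cytotoxicity.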 Type of experiment: functional, cell-based.
A short description of experiment [10]: OV-90 cell viability loss – plate reader, dry powder, SA8, PAX8 inhibitor project, dose response (AID 743149). The format is functional, cell-based.
The target in a further experiment is Paired box protein Pax-8 (Homo sapiens, UniProt Q06710). Description: PAX8 transcriptional activity inhibition in RMG-I – RMG-I cells, luciferase, cherry-pick, dose response (AID 687027).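 Also: luciferase reporter driven by Pax8 target thyroperoxidase promoter measured by SteadyGlo luminescence.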 The format is functional, cell-based.
Experiment [11] is described as follows: PAX5 cellular inhibition readout – cell-based, plate reader, dry powder samples, selectivity assay for PAX8 inhibitor project, dose response (AID 743047).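 Also: HEK293 cells carrying a Pax5 driven CD19 promoter luciferase reporter; potency of inhibitors that lower reporter luminescence.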 Type of experiment: functional.
Experiment [12] can be described thus: inhibitors acting on PAX2 in cells – cell-based, plate reader, dry powder samples, selectivity assay for PAX8 inhibitor project, dose response (AID 743048).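 Also: HEK293 cells carrying a WT1 promoter luciferase reporter driven by expressed Pax2; potency is for inhibition of Pax2 driven reporter signal.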 Type of experiment: functional.
Experiment [13] has as its target Metabotropic glutamate receptor 3 (Rattus norvegicus, UniProt P31422). The experiment can be described thus: inhibitors of rat mGlu3 Galpha15 signaling – TREx293 cells, calcium flux, mGlu3 NAM project, dose response (AID 651840). The format is functional.
A further experiment is described as follows: cells. Type of experiment: functional, cell-based. The note with it: HEK-CNG.
The target of a further experiment is Galanin receptor type 3 (Homo sapiens, UniProt O60755). The experiment can be described thus: Fluorescence-based cell-based primary high throughput dose response assay to identify antagonists of the Galanin Receptor 3 (GalR3). The format is functional.

Calls of active or inactive are those of the source.
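For EC50 in this document: target is galanin receptor GalR3 read with a cAMP biosensor in HEK293 cells.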

Disintegrin and metalloproteinase domain-containing protein 17, sequence (P78536 whole entry, the tested form may be a part): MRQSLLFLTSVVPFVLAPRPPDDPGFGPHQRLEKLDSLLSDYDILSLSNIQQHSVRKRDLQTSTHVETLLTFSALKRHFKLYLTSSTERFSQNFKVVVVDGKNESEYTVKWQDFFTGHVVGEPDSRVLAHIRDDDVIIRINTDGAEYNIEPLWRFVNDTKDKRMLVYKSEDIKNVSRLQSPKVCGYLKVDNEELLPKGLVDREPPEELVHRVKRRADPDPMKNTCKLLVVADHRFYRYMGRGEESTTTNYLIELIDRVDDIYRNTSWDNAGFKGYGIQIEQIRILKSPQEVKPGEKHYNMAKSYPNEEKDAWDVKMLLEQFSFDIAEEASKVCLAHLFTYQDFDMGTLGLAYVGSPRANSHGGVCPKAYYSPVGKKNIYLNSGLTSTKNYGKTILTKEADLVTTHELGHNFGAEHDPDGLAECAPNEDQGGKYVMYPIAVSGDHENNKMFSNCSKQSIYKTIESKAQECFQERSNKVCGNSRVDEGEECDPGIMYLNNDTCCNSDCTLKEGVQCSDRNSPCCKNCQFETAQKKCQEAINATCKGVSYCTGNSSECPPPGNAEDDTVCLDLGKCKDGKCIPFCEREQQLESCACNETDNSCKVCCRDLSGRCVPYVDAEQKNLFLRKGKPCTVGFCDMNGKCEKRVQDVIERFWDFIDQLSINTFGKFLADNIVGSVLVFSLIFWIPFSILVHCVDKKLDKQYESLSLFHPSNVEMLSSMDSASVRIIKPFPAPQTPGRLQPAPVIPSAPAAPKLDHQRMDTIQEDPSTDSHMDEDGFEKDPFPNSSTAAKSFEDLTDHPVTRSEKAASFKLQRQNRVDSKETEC
Kappa-type opioid receptor, sequence (P41145 whole entry): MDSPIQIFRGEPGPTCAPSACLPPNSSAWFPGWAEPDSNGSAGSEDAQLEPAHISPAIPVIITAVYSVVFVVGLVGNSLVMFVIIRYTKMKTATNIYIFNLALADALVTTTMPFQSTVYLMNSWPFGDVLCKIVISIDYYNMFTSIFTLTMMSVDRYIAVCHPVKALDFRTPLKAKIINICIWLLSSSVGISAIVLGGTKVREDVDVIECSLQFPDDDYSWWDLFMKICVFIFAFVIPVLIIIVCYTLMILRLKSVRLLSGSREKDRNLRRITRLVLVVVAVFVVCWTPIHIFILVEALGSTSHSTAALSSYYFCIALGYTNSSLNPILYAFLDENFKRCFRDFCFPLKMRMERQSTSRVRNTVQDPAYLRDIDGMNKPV
Metabotropic glutamate receptor 3, sequence (P31422 whole entry): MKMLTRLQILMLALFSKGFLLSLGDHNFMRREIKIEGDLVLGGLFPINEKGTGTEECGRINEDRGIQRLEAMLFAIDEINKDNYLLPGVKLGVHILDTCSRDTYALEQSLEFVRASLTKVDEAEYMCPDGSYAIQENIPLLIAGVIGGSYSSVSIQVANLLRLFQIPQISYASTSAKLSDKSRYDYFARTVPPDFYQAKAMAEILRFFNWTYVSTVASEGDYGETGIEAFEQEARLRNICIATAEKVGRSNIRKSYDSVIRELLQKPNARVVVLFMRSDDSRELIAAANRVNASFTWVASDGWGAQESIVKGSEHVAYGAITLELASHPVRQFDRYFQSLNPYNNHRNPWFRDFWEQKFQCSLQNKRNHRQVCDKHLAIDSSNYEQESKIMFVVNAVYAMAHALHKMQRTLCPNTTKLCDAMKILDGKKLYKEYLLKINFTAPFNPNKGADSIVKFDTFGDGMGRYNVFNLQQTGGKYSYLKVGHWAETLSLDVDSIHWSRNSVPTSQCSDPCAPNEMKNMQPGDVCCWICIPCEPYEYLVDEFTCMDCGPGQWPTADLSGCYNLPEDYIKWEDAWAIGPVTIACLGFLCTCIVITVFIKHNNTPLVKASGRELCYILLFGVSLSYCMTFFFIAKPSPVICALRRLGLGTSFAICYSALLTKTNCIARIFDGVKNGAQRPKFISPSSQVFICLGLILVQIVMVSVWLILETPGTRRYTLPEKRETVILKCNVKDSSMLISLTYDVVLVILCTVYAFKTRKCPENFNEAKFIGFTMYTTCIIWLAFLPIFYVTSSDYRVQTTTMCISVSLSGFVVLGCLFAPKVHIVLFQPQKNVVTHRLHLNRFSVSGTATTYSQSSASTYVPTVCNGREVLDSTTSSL
Paired box protein Pax-8, sequence (Q06710 whole entry): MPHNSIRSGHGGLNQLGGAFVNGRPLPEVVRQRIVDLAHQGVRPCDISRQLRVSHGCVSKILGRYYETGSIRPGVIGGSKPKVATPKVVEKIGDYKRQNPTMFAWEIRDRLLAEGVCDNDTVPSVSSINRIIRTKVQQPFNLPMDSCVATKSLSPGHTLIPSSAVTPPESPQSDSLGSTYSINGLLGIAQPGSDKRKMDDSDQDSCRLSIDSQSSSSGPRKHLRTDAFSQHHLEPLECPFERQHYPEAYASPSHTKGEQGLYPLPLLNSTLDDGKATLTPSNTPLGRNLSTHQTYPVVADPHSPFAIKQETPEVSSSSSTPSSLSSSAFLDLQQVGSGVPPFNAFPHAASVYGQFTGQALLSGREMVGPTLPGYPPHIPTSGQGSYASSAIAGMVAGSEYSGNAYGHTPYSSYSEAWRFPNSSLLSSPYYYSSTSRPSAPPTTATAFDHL
Galanin receptor type 3, sequence (O60755 whole entry): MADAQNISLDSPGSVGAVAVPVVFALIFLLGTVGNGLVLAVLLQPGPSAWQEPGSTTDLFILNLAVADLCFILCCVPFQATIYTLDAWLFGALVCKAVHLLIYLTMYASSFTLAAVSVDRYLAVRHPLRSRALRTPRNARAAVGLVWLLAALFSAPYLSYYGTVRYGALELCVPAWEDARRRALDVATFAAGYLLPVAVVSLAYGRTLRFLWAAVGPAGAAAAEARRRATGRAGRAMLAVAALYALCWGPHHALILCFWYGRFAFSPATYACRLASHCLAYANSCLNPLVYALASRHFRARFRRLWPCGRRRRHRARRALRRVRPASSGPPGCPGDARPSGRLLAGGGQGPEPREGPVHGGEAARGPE

In the case of `OCCCn1c(C2CCCN2c2nc(-c3ccc(F)cc3)cs2)nc2cc(Cl)c(Cl)cc21` (stereo unspecified), the half-maximal activity concentration (AC50) in [1] is 5.05 µM (active). Besides, the IC50 in [2] and in [3] was > 69.5 µM (inactive) throughout.

On to `COC(=O)c1cc(-c2ccccc2)cnc1N1CCC(NC2CCCCC2)CC1`, for which the half-inhibitory concentration (IC50) in experiment [4] was 6.2 µM (active).

`O=C(Nc1ccc(F)cc1)N1CCCCN2[C@H](CO)[C@H](c3ccc(C#Cc4ccccc4)cc3)[C@H]2C1`: the half-maximal activity concentration (AC50) is 9.51 µM (active) in experiment [5]; 7.46 µM (active) in experiment [6]; 17.2 µM (active) in experiment [7]; 1.2 µM (active) in experiment [8]; 7.78 µM (active) in [9].

As for `COc1ccc(S(=O)(=O)N2CCCCN3[C@H](CO)[C@H](c4ccc(C#CC(C)C)cc4)[C@H]3C2)cc1`, the AC50 in experiment [10] was 65.5 µM (active); at Paired box protein Pax-8 it was 10.4 µM (active); in experiment [11], 36.8 µM (active); in experiment [12], 40.7 µM (active).

As for `CCC1(O)CCCN(C(=O)c2ccc(C#Cc3ccc(OC)cc3)cc2)C1` (stereo unspecified), the 50% inhibitory concentration (IC50) in experiment [13] stood at 1.8 µM.

`COC(=O)CSc1nc(N)c(C#N)c(-c2ccc(O)cc2)c1C#N`: in “cells”, the EC50 was > 29.9 µM (inactive). The IC50 at Galanin receptor type 3 was > 29.9 µM (inactive).

The term AC50 denotes the midpoint of the concentration-response curve, whichever way the signal moves. What is called IC50 is the concentration that gives 50% inhibition. For orientation: EC50 means the concentration at which the effect is half-maximal.
